“And” between values parts separate entries of the source, which are not always exact repeats. Equal values may be shown once. Read-outs that look alike come from different tables or passages of the source.
How the values were obtained:
Plasma stability = details: for % Absolute: human plasma (hPL); for half-life: human
[1] = Pharmacokinetic studies in rats (plasma and brain); format: in vivo; details: for Kp at 2 h / Kp at 24 h / concentration at 2 h / concentration at 24 h / Plasma concentration / Brain/Plasma / Plasma 2h/24h: rat; for concentration at 2 h / concentration at 24 h: read-out: Brain concentration
Description: Because binding to plasma protein was approximately 90%, we predicted that the free concentration at each time point was 10 times lower than the measured plasma concentration.
Pharmacokinetic studies in rats. Pharmacokinetics studies were contracted to the Drug Metabolism and Pharmacokinetics Core at Scripps Research. CP612 was dissolved at in 10% Tween-80/90% water and administered at 40 mg/kg/5 mL. Six rats were injected i.v. and 6 were injected i.p. Three rats were used to collect a full plasma time course from 5 minutes to 24 hours after dose. Then, brains were collected from these rats at 24 hours and from 3 additional rats at 2 hours after administration of compound. One rat receiving i.p. administration of CP612 was excluded as it had low/nondetectable levels indicating missed i.p. injection in that rat. Plasma samples were diluted 10-fold in blank plasma. Each brain was disrupted in potassium phosphate buffer (pH 7.4; 9 μL per 1mg tissue) on ice using brief sonication pulses. CP612 was detected with an API Triple Quad 5500 LC-MS/MS (SCIEX) using an MRM(+) method: CP612 (463/282, m/z) with carbamazepine (238/195.1, m/z) as an internal standard.

[2] = i.p. 40 mg/kg, 2h, individual rat, 40 mg/kg
[3] = i.p. 40 mg/kg, 24h, individual rat, 40 mg/kg

## N[C@H](CNC(=O)C1(c2ccc(Cl)cc2)CCCC1)c1ccc(C(=O)Nc2ccncc2)cc1 [CP612]
Plasma stability; human plasma
  Plasma stability (in words): good
Plasma stability; time 0 min, individual replicates
  % Absolute: 98.366% and 71.452% and 77.756%
Plasma stability; time 15 min, individual replicates
  % Absolute: 34.724% and 41.198% and 31.011%
Plasma stability; time 30 min, individual replicates
  % Absolute: 46.894% and 51.340% and 53.939%
Plasma stability; time 60 min, individual replicates
  % Absolute: 48.950% and 36.305% and 40.476%
Plasma stability; human plasma, 37°C
  Plasma stability Cl: 0.46 ± 0.04 µL/min
Plasma stability; human plasma, individual replicates
  Cl (clearance): 0.504 and 0.448 and 0.437
Plasma stability; human plasma, individual replicates, time axis in min, in min
  t1/2 (half life): 92.829 and 95.187
Plasma stability; human plasma, slope of Ln Transform vs Time (min), individual replicates
  k: -0.008 and -0.00747 and -0.007
Plasma stability; human plasma, Plasma stability t½ (min), 37°C
  half-life: 1.5 ± 0.113 h
Plasma stability; plasma, t1/2 (half life), Mean, human plasma, mean of replicates, time axis in min
  half-life: 1.5 h
Plasma stability; plasma, t1/2 (half life), human plasma, individual replicates, time axis in min
  half-life: 1.37 h
[1]; 40 mg/kg i.p.
  Brain level between 2 hours and 24 hours: remained stable
  Decrease of plasma level between 2 hours and 24 hours: about 30 fold
[1]; 40 mg/kg i.v.
  Decrease of brain level between 2 hours and 24 hours: less than 2 fold
  Decrease of plasma level between 2 hours and 24 hours: about 70 fold
[1]; from approx. 90% plasma protein binding
  Predicted free concentration relative to measured plasma concentration: 10 times lower
[1]; brain, ip, 40 mg/kg, 40 mg/kg i.p., 2 hours, read-out: Brain/plasma concentration ratio
  Kp at 2 h: 0.03 ± 0.009
[1]; brain, ip, 40 mg/kg, 40 mg/kg i.p., 24 hours, read-out: Brain/plasma concentration ratio
  Kp at 24 h: 1.18 ± 0.42
[1]; brain, ip, 40 mg/kg, i.p. 40 mg/kg, 2h, mean all rats
  concentration at 2 h: 494 nM
[1]; brain, ip, 40 mg/kg, i.p. 40 mg/kg, 2h, mean all rats, read-out: Brain/Plasma
  Kp at 2 h: 0.0312
[1]; brain, ip, 40 mg/kg, i.p. 40 mg/kg, 2h, mean of Plasma 2h, Brain 2h rats
  concentration at 2 h: 494 nM
[1]; brain, ip, 40 mg/kg, i.p. 40 mg/kg, 2h, mean of Plasma 2h, Brain 2h rats, read-out: Brain/Plasma
  Kp at 2 h: 0.0312
[1]; brain, ip, 40 mg/kg, i.p. 40 mg/kg, 24h, individual rat
  concentration at 24 h: 609 nM
[1]; brain, ip, 40 mg/kg, i.p. 40 mg/kg, 24h, mean all rats
  concentration at 24 h: 540 nM
[1]; brain, ip, 40 mg/kg, i.p. 40 mg/kg, 24h, mean all rats, read-out: Brain/Plasma
  Kp at 24 h: 1.18
[1]; brain, ip, 40 mg/kg, i.p. 40 mg/kg, 24h, mean of RM Plasma + Brain 24h rats
  concentration at 24 h: 540 nM
[1]; brain, ip, 40 mg/kg, i.p. 40 mg/kg, 24h, mean of RM Plasma + Brain 24h rats, read-out: Brain/Plasma
  Kp at 24 h: 1.18
[1]; brain, iv, 40 mg/kg, 40 mg/kg i.v., 2 hours, read-out: Brain/plasma concentration ratio
  Kp at 2 h: 0.16 ± 0.03
[1]; brain, iv, 40 mg/kg, 40 mg/kg i.v., 24 hours, read-out: Brain/plasma concentration ratio
  Kp at 24 h: 9.17 ± 3.19
[1]; brain, iv, 40 mg/kg, i.v. 40 mg/kg, 2h, individual rat
  concentration at 2 h: 2290 nM
[1]; brain, iv, 40 mg/kg, i.v. 40 mg/kg, 2h, individual rat, read-out: Brain/Plasma
  Kp at 2 h: 0.15
[1]; brain, iv, 40 mg/kg, i.v. 40 mg/kg, 2h, mean all rats
  concentration at 2 h: 2630 nM
[1]; brain, iv, 40 mg/kg, i.v. 40 mg/kg, 2h, mean all rats, read-out: Brain/Plasma
  Kp at 2 h: 0.163
[1]; brain, iv, 40 mg/kg, i.v. 40 mg/kg, 2h, mean of Plasma 2h, Brain 2h rats
  concentration at 2 h: 2630 nM
[1]; brain, iv, 40 mg/kg, i.v. 40 mg/kg, 2h, mean of Plasma 2h, Brain 2h rats, read-out: Brain/Plasma
  Kp at 2 h: 0.163
[1]; brain, iv, 40 mg/kg, i.v. 40 mg/kg, 24h, mean all rats
  concentration at 24 h: 1460 nM
[1]; brain, iv, 40 mg/kg, i.v. 40 mg/kg, 24h, mean all rats, read-out: Brain/Plasma
  Kp at 24 h: 9.17
[1]; brain, iv, 40 mg/kg, i.v. 40 mg/kg, 24h, mean of RM Plasma + Brain 24h rats
  concentration at 24 h: 1460 nM
[1]; brain, iv, 40 mg/kg, i.v. 40 mg/kg, 24h, mean of RM Plasma + Brain 24h rats, read-out: Brain/Plasma
  Kp at 24 h: 9.17
[1]; i.p. 40 mg/kg, 15min, individual rat, 40 mg/kg
  Plasma concentration: 21815.2 nM
[1]; i.p. 40 mg/kg, 30min, individual rat, 40 mg/kg
  Plasma concentration: 20540.8 nM
[1]; [2]
  Brain/Plasma: 0.02 and 0.0252 and 0.05
  Plasma concentration: 15033 nM and 14212.3 nM and 13650.7 nM and 17581.8 nM
  concentration at 2 h: 280.8 nM and 343.4 nM and 857.5 nM
[1]; i.p. 40 mg/kg, 4h, individual rat, 40 mg/kg
  Plasma concentration: 6479.8 nM
[1]; i.p. 40 mg/kg, 6h, individual rat, 40 mg/kg
  Plasma concentration: 1874.8 nM
[1]; i.p. 40 mg/kg, 8h, individual rat, 40 mg/kg
  Plasma concentration: 1974.2 nM
[1]; [3]
  Brain/Plasma: 1.60 and 0.76
  Plasma concentration: 615.6 nM
  concentration at 2 h: 470.9 nM
[1]; i.p. 40 mg/kg, individual rat, 40 mg/kg
  Plasma 2h/24h: 37.8409 and 24.4211
[1]; i.p. 40 mg/kg, mean all rats
  Plasma 2h/24h: 31.1310
[1]; i.p. 40 mg/kg, mean of RM Plasma + Brain 24h rats
  Plasma 2h/24h: 31.1310
[1]; i.v. 40 mg/kg, 5min, individual rat, 40 mg/kg
  Plasma concentration: 73005.3 nM and 87692.8 nM
[1]; i.v. 40 mg/kg, 15min, individual rat, 40 mg/kg
  Plasma concentration: 49462.2 nM and 51406.1 nM
[1]; i.v. 40 mg/kg, 30min, individual rat, 40 mg/kg
  Plasma concentration: 35638.7 nM and 16847.4 nM and 33046.8 nM
